The target of the experiment is human adenosine A2a receptor (Homo sapiens (Human), UniProt P29274). Nature of the experiment: A2a receptor binding affinity, [3H]-NECA radioligand binding test. Conditions: [3H]-NECA 37 nM; membrane from HEK-293 cells transfected with human adenosine A2a receptor. Put shortly:
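Membranes from HEK-293 cells expressing human A2a receptor were incubated with [3H]-NECA (final 37 nM) and compound for 1 h at room temperature in 50 mM Tris, 10 mM MgCl2, 1 mM EDTA, pH 7.4. Bound ligand was filtered on PEI-coated plates and counted by scintillation to derive IC50 (μM).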

SMILES strings stand for the structures.

A word on the IC50: it is the point on the concentration scale where inhibition reaches its midpoint. A higher IC50 goes with weaker potency.

human adenosine A2a receptor, sequence (P29274 whole entry): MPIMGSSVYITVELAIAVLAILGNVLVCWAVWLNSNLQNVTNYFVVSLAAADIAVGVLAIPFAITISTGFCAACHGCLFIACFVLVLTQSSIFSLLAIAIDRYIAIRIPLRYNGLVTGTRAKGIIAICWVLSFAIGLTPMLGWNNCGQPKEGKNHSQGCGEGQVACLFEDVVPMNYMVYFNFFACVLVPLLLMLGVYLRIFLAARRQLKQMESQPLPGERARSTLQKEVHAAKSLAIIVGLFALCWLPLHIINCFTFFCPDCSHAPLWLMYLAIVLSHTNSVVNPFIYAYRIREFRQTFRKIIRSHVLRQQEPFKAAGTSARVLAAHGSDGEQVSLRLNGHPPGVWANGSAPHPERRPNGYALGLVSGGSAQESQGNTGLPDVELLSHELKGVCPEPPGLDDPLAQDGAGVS

The compound `Nc1nc(N2CCC[C@H]2C(=O)N2CCN(CC(F)(F)F)CC2)nc2sc(-c3ccco3)nc12` [Example 238, (S)-(1-(7-amino-2-(furan-2-yl)thiazolo[5,4-d]pyrimidin-5-yl)pyrrolidin-2-yl)(4-(2,2,2-trifluoroethyl)piperazin-1-yl)methanone] had a half-inhibitory concentration (IC50) of 3 nM.
For `C[C@H](Nc1nc(N)n2nc(-c3ccco3)nc2n1)C(=O)N1CCN(CC(C)(F)F)CC1` [Example 317, (S)-2-((7-amino-2-(furan-2-yl)-[1,2,4]triazolo[1,5-a][1,3,5]triazin-5-yl)amino)-1-(4-(2,2-difluoropropyl)piperazin-1-yl)propan-1-one] the value was 13 nM.
Next, `Nc1nc(N2CCC[C@@H]2C(=O)N2CCN(c3ccc(F)cc3F)CC2)nc2nc(-c3ccco3)nn12` [Example 97, (R)-(1-(7-amino-2-(furan-2-yl)-[1,2,4]triazolo[1,5-a][1,3,5]triazin-5-yl)pyrrolidin-2-yl)(4-(2,4-difluorophenyl)piperazin-1-yl)methanone]: 3350 nM.
For `COC[C@H](Nc1nc(N)n2nc(-c3ccco3)nc2n1)C(=O)N1CCN(CC(C)(C)F)CC1` [Example 303, (S)-2-((7-amino-2-(furan-2-yl)-[1,2,4]triazolo[1,5-a][1,3,5]triazin-5-yl)amino)-1-(4-(2-fluoro-2-methylpropyl)piperazin-1-yl)-3-methoxypropan-1-one], the IC50 is 6 nM.
For `Nc1nc(N2CC[C@H]2C(=O)N2CCN(CCCC(F)(F)F)CC2)nc2nc(-c3ccco3)nn12` [Example 264, (S)-(1-(7-amino-2-(furan-2-yl)-[1,2,4]triazolo[1,5-a][1,3,5]triazin-5-yl)azetidin-2-yl)(4-(4,4,4-trifluorobutyl)piperazin-1-yl)methanone] the value was 10 nM.
`Nc1nc(N[C@@H](CO)C(=O)N2CCN(Cc3ccccc3)CC2)nc2nc(-c3ccco3)nn12` [Example 233, (S)-2-((7-amino-2-(furan-2-yl)-[1,2,4]triazolo[1,5-a][1,3,5]triazin-5-yl)amino)-1-(4-benzylpiperazin-1-yl)-3-hydroxypropan-1-one]: the IC50 was 14 nM.
Compound `CC(C)[C@H](Nc1nc(N)n2nc(-c3ccco3)nc2n1)C(=O)N1CCN(CC(C)(F)F)CC1` [Example 360, (S)-2-((7-amino-2-(furan-2-yl)-[1,2,4]triazolo[1,5-a][1,3,5]triazin-5-yl)amino)-1-(4-(2,2-difluoropropyl)piperazin-1-yl)-3-methylbutan-1-one] displayed an IC50 of 10 nM.
In turn, `Nc1nc(N[C@@H](CO)C(=O)N2CCN(c3ncccn3)CC2)nc2nc(-c3ccco3)nn12` [Example 235, (S)-2-((7-amino-2-(furan-2-yl)-[1,2,4]triazolo[1,5-a][1,3,5]triazin-5-yl)amino)-3-hydroxy-1-(4-(pyrimidin-2-yl)piperazin-1-yl)propan-1-one] gave an IC50 of 10 nM.
`CC(C)C[C@H](Nc1nc(N)n2nc(-c3ccco3)nc2n1)C(=O)N1CCN(CC(F)(F)F)CC1` [Example 215, (S)-2-((7-amino-2-(furan-2-yl)-[1,2,4]triazolo[1,5-a][1,3,5]triazin-5-yl)amino)-4-methyl-1-(4-(2,2,2-trifluoroethyl)piperazin-1-yl)pentan-1-one]: the IC50 stood at 8 nM.
For `CCC(F)(CC)CN1CCN(C(=O)[C@@H]2CCCN2c2nc(N)n3nc(-c4ccco4)nc3n2)CC1` [Example 43, (S)-(1-(7-amino-2-(furan-2-yl)-[1,2,4]triazolo[1,5-a][1,3,5]triazin-5-yl)pyrrolidin-2-yl)(4-(2-ethyl-2-fluorobutyl)piperazin-1-yl)methanone], the IC50 came to 11 nM.
`CC(C)OCCN1CCN(C(=O)[C@@H]2CCCN2c2nc(N)n3nc(-c4ccco4)nc3n2)CC1` [Example 140, (S)-(1-(7-amino-2-(furan-2-yl)-[1,2,4]triazolo[1,5-a][1,3,5]triazin-5-yl)pyrrolidin-2-yl)(4-(2-isopropoxyethyl)piperazin-1-yl)methanone] registered an IC50 of 10 nM.
For `Nc1nc(N[C@@H](Cc2ccccc2)C(=O)N2CCC(N3CCOCC3)CC2)nc2nc(-c3ccco3)nn12` [Example 19, (S)-2-((7-amino-2-(furan-2-yl)-[1,2,4]triazolo[1,5-a][1,3,5]triazin-5-yl)amino)-1-(4-morpholinopiperidin-1-yl)-3-phenylpropan-1-one] the value was 15 nM; for `Nc1nc(N[C@@H](Cc2ccccc2)C(=O)N2CCC(Cc3ccccc3)CC2)nc2nc(-c3ccco3)nn12` [Example 2], 1 nM; for `COCCN1CCN(C(=O)[C@@H]2CCCN2c2nc(N)n3nc(-c4ccc(C)o4)nc3n2)CC1` [Example 91, (S)-(1-(7-amino-2-(5-methylfuran-2-yl)-[1,2,4]triazolo[1,5-a][1,3,5]triazin-5-yl)pyrrolidin-2-yl)(4-(2-methoxyethyl)piperazin-1-yl)methanone], 7 nM.
Next, `C[C@H](Nc1nc(N)n2nc(-c3nccs3)nc2n1)C(=O)N1CCN(c2ccc(F)cc2F)CC1` [Example 194, (S)-2-((7-amino-2-(thiazol-2-yl)-[1,2,4]triazolo[1,5-a][1,3,5]triazin-5-yl)amino)-1-(4-(2,4-difluorophenyl)piperazin-1-yl)propan-1-one]: 12 nM; `Cc1ccc(-c2nc3nc(N4CC[C@H]4C(=O)N4CCN(C(=O)c5ccccc5)CC4)nc(N)n3n2)o1` [Example 207, (S)-(1-(7-amino-2-(5-methylfuran-2-yl)-[1,2,4]triazolo[1,5-a][1,3,5]triazin-5-yl)azetidin-2-yl)(4-benzoylpiperazin-1-yl)methanone]: 11 nM.
Compound `Nc1nc(N2CCC[C@H]2C(=O)N2CCC(N3CC(F)(F)C3)CC2)nc2nc(-c3ccco3)nn12` [Example 390, (S)-(1-(7-amino-2-(furan-2-yl)-[1,2,4]triazolo[1,5-a][1,3,5]triazin-5-yl)pyrrolidin-2-yl)(4-(3,3-difluoroazetidin-1-yl)piperidin-1-yl)methanone] registered an IC50 of 8 nM.
For `Cc1cccc(NC(=O)N2CCN(C(=O)[C@@H]3CCCN3c3nc(N)n4nc(-c5ccco5)nc4n3)CC2)c1` [Example 61, 4-((7-amino-2-(furan-2-yl)-[1,2,4]triazolo[1,5-a][1,3,5]triazin-5-yl)-L-prolyl)-N-(m-tolyl)piperazin-1-carboxamide] the value was 3 nM.
For the compound `Nc1nc(N2CCC[C@H]2C(=O)N2CCC3(CC2)CN(Cc2ccc(F)cc2F)C3)nc2nc(-c3ccco3)nn12` [Example 52, (S)-(1-(7-amino-2-(furan-2-yl)-[1,2,4]triazolo[1,5-a][1,3,5]triazin-5-yl)pyrrolidin-2-yl)(2-(2,4-difluorobenzyl)-2,7-diazaspiro[3.5]nonan-7-yl)methanone], the IC50 stood at 16 nM.
For `CCC(O)(CC)CN1CCN(C(=O)[C@@H](Nc2nc(N)n3nc(-c4ccco4)nc3n2)C2CCCCC2)CC1` [Example 185, (S)-2-((7-amino-2-(furan-2-yl)-[1,2,4]triazolo[1,5-a][1,3,5]triazin-5-yl)amino)-2-cyclohexyl-1-(4-(2-ethyl-2-hydroxybutyl)piperazin-1-yl)ethan-1-one] the value was 3 nM.
`Cc1ccc(-c2nc3nc(N4CCC[C@H]4C(=O)N4CCN(c5ccc(F)cc5F)CC4)nc(N)n3n2)o1` [Example 87, (S)-(1-(7-amino-2-(5-methylfuran-2-yl)-[1,2,4]triazolo[1,5-a][1,3,5]triazin-5-yl)pyrrolidin-2-yl)(4-(2,4-difluorophenyl)piperazin-1-yl)methanone] had an IC50 of 1 nM.
For `CCCCN1CCC(C2CCN(C(=O)[C@@H]3CCCN3c3nc(N)n4nc(-c5ccco5)nc4n3)CC2)CC1` [Example 265, (S)-(1-(7-amino-2-(furan-2-yl)-[1,2,4]triazolo[1,5-a][1,3,5]triazin-5-yl)pyrrolidin-2-yl)(1′-butyl-[4,4′-bipiperidin]-1-yl)methanone] the value was 44 nM; for `Nc1nc(N2CCC[C@H]2C(=O)N2CCC(N3CC(F)(F)C3)CC2)cc2nc(-c3ccco3)nn12` [Example 400, (S)-(1-(5-amino-2-(furan-2-yl)-[1,2,4]triazolo[1,5-c]pyrimidin-7-yl)pyrrolidine-2-yl)(4-(3,3-difluoroazetidin-1-yl)piperidin-1-yl)methanone], 14 nM; for `C[C@@H]1CN(CC(C)(C)F)CCN1C(=O)[C@@H]1CCCN1c1nc(N)n2nc(-c3ccco3)nc2n1` [Example 374, ((S)-1-(7-amino-2-(furan-2-yl)-[1,2,4]triazolo[1,5-a][1,3,5]triazin-5-yl)pyrrolidin-2-yl)((R)-4-(2-fluoro-2-methylpropyl)-2-methylpiperazin-1-yl) methanone], 0.8 nM.
In turn, `Nc1nc(N2CCC[C@H]2C(=O)N2CCCN(CC(F)(F)F)CC2)nc2nc(-c3ccco3)nn12` [Example 278, (S)-(1-(7-amino-2-(furan-2-yl)-[1,2,4]triazolo[1,5-a][1,3,5]triazin-5-yl)pyrrolidin-2-yl)(4-(2,2,2-trifluoroethyl)-1,4-diazepan-1-yl)methanone] came in with an IC50 of 20 nM.
Next, `Nc1nc(N2CCC[C@H]2C(=O)N2CCN(C(=O)C3(C(F)(F)F)CC3)CC2)nc2nc(-c3ccco3)nn12` [Example 74]: 13 nM.
`CC(C)(F)CN1CCN(C(=O)[C@@H]2CC3(CC3)CN2c2nc(N)n3nc(-c4ccco4)nc3n2)CC1` [Example 386, (S)-(5-(7-amino-2-(furan-2-yl)-[1,2,4]triazolo[1,5-a][1,3,5]triazin-5-yl)-5-azaspiro[2.4]heptan-6-yl)(4-(2-fluoro-2-methylpropyl)piperazin-1-yl)methanone] returned an IC50 of 8 nM.
For `C[C@H](Nc1nc(N)n2nc(-c3ccco3)nc2n1)C(=O)N1CCN(CC(F)(F)C(F)(F)C(F)(F)F)CC1` [Example 320, (S)-2-((7-amino-2-(furan-2-yl)-[1,2,4]triazolo[1,5-a][1,3,5]triazin-5-yl)amino)-1-(4-(2,2,3,3,4,4,4-heptafluorobutyl)piperazin-1-yl)propan-1-one] the value was 2 nM.

(Values after patent US20240217978A1 (CHONG KUN DANG PHARMACEUTICAL CORP., priority 2021, published 2024).)
